Results reported in the SangsterLogP compilation.

Assays:
[1] = method code SF, from Kruglik, P.; Leschev, M.; Rakhman'ko, M.; Bubel, N.; Asratyan, V. (1991). Extraction of 1,2,4-triazole and its derivatives by organic solvents. 64(8)1721-1724.
[2] = method code SF-AS, from DOI: 10.1016/0022-1902(68)80266-0; settings: pH 4.0
[3] = method code SF, from DOI: 10.1002/jps.2600641111, PMID: 1195110; settings: pH 7.4
[4] = method code SF, from DOI: 10.1021/js9601804, PMID: 9344176; settings: pH 8.0
[5] = not given; remark: listed apart in the source
[6] = not given; remark: listed apart in the source
[7] = method code SF-AS, from Korenman, I.; Nefedova, E.; Dyukova, I. (1977). Extraction of picramic acid. Int J Clin Pharmacol Ther Toxicol, 51(5)734-735.; settings: pH 7.4
[8] = not given; remark: listed apart in the source
[9] = method code SF-HPLC, from DOI: 10.1002/ps.2780370106; settings: pH 0.0
[10] = method code SF-AS, from DOI: 10.1111/j.2042-7158.1989.tb06484.x, PMID: 2570835
[11] = method code SF-RC, from DOI: 10.1002/jps.2600840617, PMID: 7562417
[12] = method code SF-AS, from PMID: 2748530
[13] = method code SF-AS, from DOI: 10.1002/jps.2600600712, PMID: 4398902
[14] = method code SF, from DOI: 10.1021/jm00111a036, PMID: 2066990
[15] = method code SF-AS, from DOI: 10.1016/0014-2999(86)90191-3, PMID: 3780854; settings: pH 7.4
[16] = method code SF-AS, from DOI: 10.1016/0006-2952(75)90156-2, PMID: 235934; settings: pH 7.4
[17] = not given; remark: listed apart in the source
[18] = method code SF-AS, from Korenman, Y.; Sotnikova, G. (1975). Extraction of vanillins from aqueous solutions. Zh. Prikl. Khim., 48(1)188-191.
[19] = method code SF-RC, from DOI: 10.1016/0006-2952(81)90006-x, PMID: 6456004
[20] = method code SF, from DOI: 10.1246/bcsj.60.4357
[21] = not given; remark: listed apart in the source
[22] = method code SF-ESR, from DOI: 10.1111/1523-1747.ep12319780, PMID: 2551971; settings: pH 7.0
[23] = method code SF-RC, from DOI: 10.1016/s0969-8051(98)00005-5, PMID: 9720665; settings: pH 7.0
[24] = method code SF-RC, from DOI: 10.1016/0048-3575(88)90037-5
[25] = not given; remark: listed apart in the source
[26] = not given; remark: listed apart in the source
[27] = method code SF-GLC, from Park, Y.; Park, S. (2000). Determination and prediction of octanol/water partition coefficients and air-water partition coefficients for environmental toxic chemicals. 11(7)773-779.
[28] = method code SF-HPLC, from DOI: 10.1007/bf03246517
[29] = method code SF-HPLC, from DOI: 10.1002/jps.2600810507, PMID: 1403673
[30] = method code SF, from DOI: 10.1248/cpb.42.1525, PMID: 7923475
[31] = method code SF, from DOI: 10.1080/09553009014551091, PMID: 1970998; settings: pH 7.4
[32] = not given; remark: listed apart in the source
[33] = not given; remark: listed apart in the source
[34] = method code SF-AS, from DOI: 10.1080/09553007214550551, PMID: 4537457
[35] = not given; remark: listed apart in the source
[36] = not given; remark: listed apart in the source
[37] = method code SF-AS, from DOI: 10.1016/s0006-3495(76)85671-8, PMID: 1247644; settings: pH 8.0
[38] = method code SF-RC,FL, from DOI: 10.1016/0006-2952(81)90006-x, PMID: 6456004
[39] = method code SF-RC, from DOI: 10.1002/qsar.19880070404; settings: pH 0.0
[40] = not given; remark: listed apart in the source
[41] = method code SF-POL, from DOI: 10.1111/j.1365-2044.1990.tb14524.x, PMID: 2316851; settings: pH 7.1
[42] = method code SF-AS, from DOI: 10.1021/jm00307a001, PMID: 5637185
[43] = method code SF, from PMID: 15170; settings: pH 5.0
[44] = method code SF, from DOI: 10.1007/s00253-012-4358-8, PMID: 23081771; settings: pH 7.0
[45] = method code SF-AS, from DOI: 10.1021/jm00304a030, PMID: 5793164; settings: pH 7.4
[46] = pH 1.0
[47] = method code SF-HPLC, from PMID: 1880579; settings: pH 7.4
[48] = method code SF, from DOI: 10.1248/yakushi1947.99.3_235; settings: pH 11.0
[49] = not given; remark: listed apart in the source

Q: For CC(C)CCn1cnc([N+](=O)[O-])n1, which logP [1] is on record?
A: The logP was 1.26.

Q: With CCCn1cnc2c(N)ncnc21 as the molecule, how does the logP read?
A: Its logP is 0.74.

Q: For O=C(CC(=O)C(F)(F)F)c1cccs1, which logD [2] is on record?
A: Its logD is 1.46.

Q: For CC(=O)NCCn1c([N+](=O)[O-])cnc1C, which logD [3] is on record?
A: Its logD is -0.47.

Q: For O=C1COc2ccccc2N1, which logD [4] is on record?
A: The logD was 1.31.

Q: With O=C1NC(=O)c2ccccc21 as the molecule, how does the logP [5] read?
A: The logP was 1.04.

Q: Which logP [6] does the source give for COc1nc(C(Cl)(Cl)Cl)c(Cl)c(OC)c1Cl here?
A: The logP was 5.48.

Q: Which logD [7] does the source give for CC(C)c1cnc([N+](=O)[O-])n1C here?
A: Its logD is 1.09.

Q: With CCC(CC)C(=O)NC(N)=O as the molecule, how does the logP [8] read?
A: Its logP is 0.91.

Q: For Cc1c(F)c(F)c(C(=O)O)c(F)c1F, which logD [9] is on record?
A: Its logD is 3.15.

Q: With O=c1[nH][nH]c(=O)c2ccccc12 as the molecule, how does the logP [10] read?
A: Its logP is 0.11.

Q: With Nc1ccn(C[C@@H](CO)OCP(=O)(O)O)c(=O)n1 as the molecule, how does the logP [11] read?
A: The logP was -3.17.

Q: For O=[N+]([O-])c1nccn1CC(O)COCC(F)(F)F (stereo not given), which logP [12] is on record?
A: Its logP is 0.46.

Q: For CCN1CCCCCC1=O, which logP [13] is on record?
A: Its logP is 0.65.

Q: With O=[N+]([O-])c1nccn1CC(O)C/C=C/I (stereo not given) as the molecule, how does the logP [14] read?
A: The logP was 0.4.

Q: For COc1noc2c1CN(C)CC2, which logD [15] is on record?
A: Its logD is 0.4.

Q: Which logD [16] does the source give for CCOc1ccc([N+](=O)[O-])cc1 here?
A: The logD was 2.53.

Q: With O=[N+]([O-])c1nccn1C1OCC(I)CC1F (stereo not given) as the molecule, how does the logP [17] read?
A: Its logP is 0.8.

Q: For COc1ccc(C=O)cc1O, which logP [18] is on record?
A: Its logP is 0.97.

Q: Which logP [19] does the source give for NCCc1ccccc1 here?
A: The logP was 1.16.

Q: For CCc1cc([N+](=O)[O-])cc([N+](=O)[O-])c1O, which logP [20] is on record?
A: The logP was 2.67.

Q: For CCOc1ccccc1O, which logP [21] is on record?
A: Its logP is 1.91.

Q: Which logD [22] does the source give for CC1(C)COC(C)(C)N1O here?
A: The logD was 0.48.

Q: For OC1OC2COC(CI)OC2C(O)C1O (stereo not given), which logD [23] is on record?
A: Its logD is 1.1.

Q: Which logP [24] does the source give for CC(C)Nc1nc(Cl)nc(NCCO)n1 here?
A: The logP was 0.78.

Q: For CCCCCCC, which logP [25] is on record?
A: The logP was 4.48.

Q: For CO[C@@H]([C@H](O)[C@H](O)CO)[C@@H](O)C=O, which logP [26] is on record?
A: The logP was -3.

Q: For CC(=O)OCCC(C)C, which logP [27] is on record?
A: Its logP is 2.55.

Q: With OCCc1ccc(O)cc1 as the molecule, how does the logP [28] read?
A: The logP was 0.69.

Q: For O=C(O)c1ccc(C(=O)O)cc1, which logP [29] is on record?
A: Its logP is 1.68.

Q: With COC(=O)c1ccccc1 as the molecule, how does the logP [30] read?
A: Its logP is 2.09.

Q: Which logD [31] does the source give for O=[N+]([O-])c1nccn1COC(CO)CO here?
A: The logD was -1.03.

Q: With O=C(Cn1ccnc1[N+](=O)[O-])NCC(F)(F)C(F)(F)F as the molecule, how does the logP [32] read?
A: The logP was 0.76.

Q: With O=[N+]([O-])c1nccn1[C@H]1O[C@H](CF)[C@@H](O)[C@@H]1O as the molecule, how does the logP [33] read?
A: The logP was 0.04.

Q: With CC(=O)c1ccc(Cl)cc1 as the molecule, how does the logP [34] read?
A: The logP was 2.35.

Q: Which logP [35] does the source give for O=C(NCCO[N+](=O)[O-])c1cccnc1 here?
A: Its logP is -1.02.

Q: With CC(C)(C)c1cn2nc(S(N)(=O)=O)sc2n1 as the molecule, how does the logP [36] read?
A: Its logP is 2.15.

Q: For Cc1nc2c(Cl)c(Cl)c(Cl)c(Cl)c2[nH]1, which logD [37] is on record?
A: The logD was 2.83.

Q: For NCCc1ccc(O)cc1, which logP [38] is on record?
A: The logP was -0.24.

Q: For O=C(O)Cc1ccccc1I, which logD [39] is on record?
A: The logD was 2.33.

Q: For O=S(=O)(CS(=O)(=O)C(F)(F)F)c1ccc(Cl)c(Cl)c1, which logP [40] is on record?
A: The logP was 1.7.

Q: For NC(=S)NN=C1C=CC(=NNC(N)N)C=C1, which logD [41] is on record?
A: Its logD is -1.4.

Q: With C#CC1(O)CCCCC1 as the molecule, how does the logP [42] read?
A: Its logP is 1.73.

Q: For CCC1(CC)C(=O)NC(=O)NC1=O, which logD [43] is on record?
A: Its logD is 0.71.

Q: With C=Cc1ccc(O)cc1 as the molecule, how does the logD [44] read?
A: The logD was 2.36.

Q: Which logD [45] does the source give for Brc1ccc2[nH]ccc2c1 here?
A: The logD was 3.

Q: For O=C(O)Cc1c(Cl)ccc(Cl)c1Cl, which logD [46] is on record?
A: Its logD is 3.2.

Q: With O=[N+]([O-])c1nccn1C1OC(CI)C(O)C1O (stereo not given) as the molecule, how does the logD [47] read?
A: The logD was 0.7.

Q: With OCCC1CCCCN1 (stereo not given) as the molecule, how does the logD [48] read?
A: The logD was 0.11.

Q: With Cc1ccccc1C as the molecule, how does the logP [49] read?
A: Its logP is 3.29.
